From PubChem BioAssay AID2423 (Broad Institute, 2010) come the findings set out here.

“And” between values parts separate entries of the source, which are not always exact repeats. Identical values can stand only once. Inconclusive results are not listed. The source made the active and inactive calls. How the calls were made is not given here.

This test relates to C. albicans CaCi-8 + fluconazole, Alamar Blue growth, 48 h. As to the kind of experiment: resistant C. albicans growth inhibition with fluconazole, dose response, CaCi-8 strain, Alamar Blue fluorescence (AID 2423).
By EC50 is commonly meant the concentration that produces a half-maximal response. As to `N/C(Cc1ccccc1)=N\OC(=O)c1cccc2ccccc12`, the EC50 is 1400 nM. In the case of `CC[n+]1c(/C=C2\Sc3ccccc3N2C)ccc2cccc(C)c21` it was < 120 nM; in that of `NC(=S)n1[nH]c(-c2ccc([N+](=O)[O-])cc2)c(N=Nc2cccc([N+](=O)[O-])c2)c1=O`, 2830 nM. In the case of `CN1CCN(C(c2ccc(C(F)(F)F)cc2)c2cc(Cl)c3cccnc3c2O)CC1` (stereo not given) it was 787 nM.

`Nc1nonc1-n1nnc(C(=O)N/N=C/c2cc(Cl)ccc2O)c1CN1CCCCCC1`: the EC50 was 1820 nM. `O=C(N/N=C/c1sc(N2CCCCC2)nc1-c1cccs1)c1cccnc1`: the EC50 was 1470 nM. In the case of `CC1(C)COCN1S(=O)(=O)c1ccc(C(=O)Nc2nnc(-c3ccc(Cl)s3)o2)cc1` it was 484 nM; in that of `COc1ccc(CCn2c(C)cc3c(c2=O)C(c2ccc4c(c2)OCO4)C(C#N)=C(N)O3)cc1OC` (stereo not given), > 16000 nM (inactive).

As for `CCCCN(C)S(=O)(=O)c1ccc(C(=O)Nc2nnc(-c3cccs3)o2)cc1`, the EC50 was > 15000 nM (inactive). On to `Cc1cccc(N=Nc2c(C)[nH]n(C(N)=S)c2=O)c1C`, for which the 50% effective concentration (EC50) is 944 nM. Consider `Oc1ccc(CN2CCN(Cc3ccccc3)CC2)c2cccnc12`, for which the EC50 was > 16000 nM (inactive). In the case of `COc1ccc(OC)c(NC(=O)C(=O)/C=C(\O)c2cc(OC)ccc2OC)c1` it was > 15000 nM (inactive); in that of `CC(=O)O/N=C/c1c(N2CCOCC2)n(C)c2ccccc12`, 403 nM; in that of `COc1cccc(N=Nc2ccc3cccnc3c2O)c1`, 430 nM. In the case of `Cc1cccc(C(=O)NC(=S)NNC(=O)Cc2ccccc2)c1` it was 10600 nM; in that of `CCCOC(c1ccccc1)(c1ccc(C(F)(F)F)cc1)C(Oc1nc(C)cc(C)n1)C(=O)O` (stereo not given), 6470 nM. With `O=C(CC(=O)c1cccc([N+](=O)[O-])c1)Nc1ccccc1Cl` the figure was 954 nM; with `CCOc1ccc(/C=N/NC(=O)c2[nH]ncc2Br)c(O)c1`, 1850 nM. On to `CCC(=O)NC(c1ccco1)c1cc(Cl)c2cccnc2c1O` (stereo not given), for which the EC50 is 788 nM. With `CCOC(=O)COc1ccc(S(=O)(=O)N2CCN(c3ccccc3F)CC2)cc1` the figure was > 15000 nM (inactive); with `CCc1ccc(/C=C2\SC(=S)N(CCCC(=O)Nc3ccccc3C(=O)O)C2=O)cc1`, 304 nM. On to `COc1cc([N+](=O)[O-])cc(/C=N/NC(=O)c2ccc(NC(=O)c3ccc(C)cc3)cc2)c1O`, for which the half-maximal effective concentration (EC50) was 2340 nM. With `C=CCn1c(=N)n(CC(=O)c2cccc([N+](=O)[O-])c2)c2ccccc21` the figure was > 16000 nM (inactive). For `Cc1nnc(NC(=O)c2ccc(S(=O)(=O)N(C)Cc3ccccc3)cc2)o1`, the EC50 is 808 nM. In the case of `O=C(Nc1ccccc1N1CCOCC1)c1cc(F)cc(F)c1` it was 2660 nM; in that of `CCCCCCCCCCCCCCCC[N+](C)(C)C`, > 15000 nM (inactive); in that of `CCOC(=O)C1CCCN(c2cc(C)nc3cc(-c4ccc(F)cc4)nn23)C1` (stereo not given), > 16000 nM (inactive). With `Cc1[nH]c2ccccc2c1/C=C/c1cc[n+](C)cc1`, the EC50 is 7180 nM.

Regarding `Cc1cc(C(=O)Nc2nc(-c3ccccn3)cs2)ccc1[N+](=O)[O-]`, the concentration for a half-maximal effect (EC50) was 960 nM. In the case of `CCCCn1c(SCC(=O)Nc2cccc(OC)c2)nc2ccc(N3CCOCC3)cc2c1=O` it was 3630 nM. In the case of `C=CCNC(=S)N/N=C/c1ccc(-c2ccc(OC)cc2)o1` it was 4000 nM; in that of `CCCCN(C)S(=O)(=O)c1ccc(C(=O)Nc2nnc(-c3ccco3)o2)cc1`, > 16000 nM (inactive). In the case of `CN(C)c1ccc(-c2n(C)c3ccccc3[n+]2C)cc1` it was 3930 nM; in that of `CCC(=O)NC(c1ccc(Cl)cc1Cl)c1ccc2cccnc2c1O` (stereo not given), 714 nM.

On to `COc1cnc(-c2ccccn2)nc1Sc1cccc(Cl)c1`, for which the EC50 was > 16000 nM (inactive). In the case of `C[n+]1c(-c2ccccc2)c2cc(N)ccc2c2ccc(N)cc21` it was > 16000 nM (inactive). In the case of `COc1cccc(C(C(=O)NC2CCCC2)N(C(=O)c2ccco2)c2ccc(-n3cnnn3)c(C)c2)c1OC` (stereo not given) it was > 15000 nM (inactive); in that of `CCc1cc(-c2n[nH]c(=S)n2-c2ccccc2C)cs1`, 415 nM. With `Cc1c(O)cc2n(c1=O)-c1ccc(Cl)cc1C2(C)C` the figure was 332 nM; with `COc1ccc(-n2c(=O)c3c4c(sc3n3c(=S)[nH]nc23)CCCC4)cc1`, 744 nM; with `CCOc1cc(N2CCOCC2)c(OCC)cc1NC(=O)COc1cccc2cccnc12`, > 15000 nM (inactive). On to `Oc1ccc(CN2CCCCC2)c2cccnc12`, for which the concentration giving a half-maximal response (EC50) is 16100 nM. With `Cc1ccc(S(=O)(=O)/N=C(/c2ccccc2)N2CCOCC2)c(C)c1` the figure was > 16000 nM (inactive).

Turning to `O=C(Nc1nnc(-c2ccncc2)o1)c1ccc2ccccc2c1`, the concentration giving a half-maximal response (EC50) is 1440 nM.

`CCn1c(NC(=O)c2cccs2)nc2ccccc21`: the EC50 is 1280 nM. With `O=C(Nc1ccc(N=Nc2ccccc2)c(NC(=O)C2CCCO2)c1)C1CCCO1` (stereo not given) the figure was 4770 nM; with `Nc1nonc1-n1nnc(C(=O)N/N=C/c2cc(Br)ccc2O)c1CSC1=NCCS1`, 359 nM. In the case of `COc1cc2ccccc2cc1C(=O)NNC(=O)c1ccccc1O` it was 8440 nM; in that of `Cc1cc(NC(=O)c2c(F)cccc2Cl)n(-c2nc3ccccc3[nH]2)n1`, 7390 nM.

On to `CCC(C)(C)c1ccc(OCCCC[n+]2cccc(C)c2C)c(C(C)(C)CC)c1`, for which the EC50 was > 16000 nM (inactive). In the case of `CCC(=O)NC(c1cccs1)c1cc([N+](=O)[O-])c2cccnc2c1O` (stereo not given) it was 633 nM; in that of `Cc1c(CCOC(=O)CC23CC4CC(CC(C)(C4)C2)C3)sc[n+]1Cc1ccc([N+](=O)[O-])cc1`, 11900 nM. With `Cc1ccc(-c2nc3c(Cl)cc(Cl)cc3c(=O)n2O)cc1` the figure was 1110 nM; with `CN1/C(=C/C(=O)c2cccs2)Sc2ccccc21`, 841 nM; with `Cc1cccc(Sc2nc(-c3ccccc3)ncc2C(=O)O)c1`, > 15000 nM (inactive). On to `CO/N=C/c1ccc(N2CCN(C(=O)c3ccc(C)cc3)CC2)c([N+](=O)[O-])c1`, for which the EC50 is 2100 nM.

Turning to `Cc1nc(NS(=O)(=O)c2ccc(Br)cc2)c2c3c(sc2n1)CCC3`, the EC50 was > 16000 nM (inactive). In the case of `O=C(NNC1=C(C(=O)C(F)(F)F)CCC1)c1ccc(Cl)cc1` it was 1040 nM; in that of `COc1ccc(NC(=O)c2cc([N+](=O)[O-])ccc2O)cc1`, 3920 nM.

As to `Cc1ccc(NC(=O)CSc2nnc([C@@H](N)Cc3c[nH]c4ccccc34)o2)c(C)c1`, the EC50 was > 15000 nM (inactive). In the case of `Cc1ccc(S(=O)(=O)C(C#N)c2nc3ccccc3nc2N2CCN(C)CC2)cc1C` (stereo not given) it was 16000 nM; in that of `O=C(NNc1nc2ccc(Cl)cc2s1)c1cc(-c2cccs2)nc2ccccc12`, 400 nM. With `CCCn1c(N)c(C(=O)COC(=O)c2c(C)noc2C)c(=O)n(C)c1=O`, the EC50 is > 15000 nM (inactive).

As to `CCOC(=O)c1sc(N2C(=O)C(O)=C(C(=O)c3ccco3)C2c2cccc(Cl)c2)nc1C` (stereo not given), the EC50 was 597 nM. With `O=C(Nc1nnc(COc2ccc(F)cc2)s1)c1ccco1` the figure was 7770 nM. With `Cc1cc(O)ccc1NC(=S)NC(=O)c1cncc(Br)c1`, the EC50 was 727 nM.

Turning to `COc1ccc(C(=O)NN/C(C)=C/C(=O)C(F)(F)C(F)(F)C(F)(F)F)cc1`, the EC50 is 5050 nM.

`O=c1[nH]c(Nc2ccc3c(c2)OCCO3)nnc1Cc1ccccc1`: the EC50 is > 16000 nM (inactive).

In the case of `Cc1ccc2[nH]c(=O)c(C3C(C#N)=C(N)Oc4c3ccc3cccnc43)cc2c1` (stereo not given), the EC50 was 971 nM. In the case of `C/C(=N\O)c1cc(Cl)cc(Cl)c1O`, the EC50 was 3660 nM. Turning to `Cc1ccc(O)c(C(=O)CC(=O)c2ccccc2Cl)c1`, the EC50 was 1570 nM.

With `CCN1/C(=C\c2ccc3cc(C)ccc3[n+]2CC)Sc2cc(C)c(C)cc21`, the EC50 was < 120 nM. In the case of `CN1CCN(C(c2ccc(Br)cc2)c2cc(Cl)c3cccnc3c2O)CC1` (stereo not given) it was 624 nM; in that of `Cc1ccc(Nc2nc(Cl)nc(NC(C)(C)C)n2)cc1`, 2620 nM. In the case of `Cc1ccc(S(=O)(=O)c2ncccc2[N+](=O)[O-])cc1` it was 1090 nM. With `Cc1cc(Sc2nc(N)ncc2[N+](=O)[O-])ncn1` the figure was 2150 nM.

Regarding `c1cnc2c(c1)ccc1cccnc12`, the EC50 was 10500 nM and 9350 nM. With `CCOc1ccccc1NC(=O)c1cc(S(=O)(=O)N2CCC3(CC2)OCCO3)ccc1F` the figure was > 16000 nM (inactive). In the case of `CC(C)c1ccc2c(c1)C(N1CCNCC1)Cc1ccc(F)cc1S2` (stereo not given) it was 7170 nM; in that of `O=C(Nc1cccc(F)c1)c1ccc2ncsc2c1`, 2350 nM.

As to `O=C(CCS(=O)(=O)c1ccccc1)Nc1ncc([N+](=O)[O-])s1`, the EC50 is > 15000 nM (inactive). With `CC(C)CCOc1cccc(OCC(=O)Nc2ccncc2)c1` the figure was 3220 nM. As for `O=C(Nc1ccccc1)OCN1C(=O)c2ccccc2C1=O`, the EC50 was > 15000 nM (inactive).

Regarding `CCc1nn(CCCC(=O)NCc2ccc(C)cc2)c(=O)c2cc3occc3n12`, the EC50 was > 16000 nM (inactive). Take `O=Cc1cc(N=Nc2ccccc2Cl)ccc1O`: the EC50 is 6390 nM. With `CCC(C)c1ccc(O)c(NC(=S)NC(=O)c2cccnc2)c1` (stereo not given) the figure was 878 nM; with `Nc1ccc(C(=O)N/N=C\c2ccc(OC(=O)c3ccccc3Cl)cc2)cc1`, 431 nM. With `COC(=O)c1cc(C)sc1NC(=O)c1cccnc1` the figure was 5890 nM; with `COCCNC(=O)CCCn1c(=O)c2cc(OC)c(OC)cc2n(CC(=O)NCCC2=CCCCC2)c1=O`, 5380 nM. For the molecule `O=C(Cn1c2ccc(F)cc2c2nc3n(c(=O)c21)CCS3)N1CCCC1`, the EC50 is > 16000 nM (inactive). In the case of `CCCC(=O)NC(=S)NNC(=O)c1ccc([N+](=O)[O-])cc1` it was 4900 nM; in that of `CC(C)(C)c1ccc(C(=O)NC(=S)NNC(=O)COc2ccccc2)cc1`, 2110 nM. `CC(C)(C)C(=O)NC(=S)NNC(=O)C(c1ccccc1)c1ccccc1`: the concentration giving a half-maximal response (EC50) is 2160 nM. In the case of `O=C(N/N=C/c1ccc(O)cc1O)c1ccc(CN2C(=O)c3cccc4cccc2c34)cc1` it was 709 nM; in that of `Cn1c(O)c(/C=N/NC(=O)c2cc3ccccc3cc2O)c2ccccc21`, 5350 nM.
